# Assay results as given in PubChem BioAssay (NCI).
#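 96-well plates; 48 h exposure; 5 concentrations. Endpoints by linear interpolation between flanking doses. Not reached: highest tested concentration assigned. GI50 = concentration required for 50% inhibition of growth. TGI: concentration producing complete growth inhibition.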
# Legend:
# Assay in all cases: NCI anticancer screen, dose series, 48 h
# HOP-62 NSCLC = system: HOP-62 NSCLC
# IGROV1 ovarian = system: IGROV1 ovarian
# HCT-116 colon = system: HCT-116 colon
# SR leukemia = system: SR leukemia
# DU-145 prostate = system: DU-145 prostate
# SK-MEL-28 melanoma = system: SK-MEL-28 melanoma
# OVCAR-8 ovarian = system: OVCAR-8 ovarian
# SF-295 CNS = system: SF-295 CNS
# SW-620 colon = system: SW-620 colon
# UACC-62 melanoma = system: UACC-62 melanoma
# MALME-3M melanoma = system: MALME-3M melanoma
# OVCAR-5 ovarian = system: OVCAR-5 ovarian
# MOLT-4 leukemia = system: MOLT-4 leukemia
# SF-268 CNS = system: SF-268 CNS
# MDA-MB-231 breast = system: MDA-MB-231 breast
# MCF7 breast = system: MCF7 breast
# OVCAR-4 ovarian = system: OVCAR-4 ovarian
# NCI-H460 lung = system: NCI-H460 lung
# HT29 colon = system: HT29 colon
# BT-549 breast = system: BT-549 breast
# NCI-H522 lung = system: NCI-H522 lung
# HCC-2998 colon = system: HCC-2998 colon
# U251 CNS = system: U251 CNS
# EKVX NSCLC = system: EKVX NSCLC
# SNB-19 CNS = system: SNB-19 CNS
# 786-0 renal = system: 786-0 renal
# SNB-75 CNS = system: SNB-75 CNS
# T-47D breast = system: T-47D breast
# CAKI-1 renal = system: CAKI-1 renal
# PC-3 prostate = system: PC-3 prostate
# TK-10 renal = system: TK-10 renal
# KM12 colon = system: KM12 colon
# NCI-H226 lung = system: NCI-H226 lung
# SK-MEL-5 melanoma = system: SK-MEL-5 melanoma
# NCI/ADR-RES ovarian = system: NCI/ADR-RES ovarian
# NCI-H23 lung = system: NCI-H23 lung
# CCRF-CEM leukemia = system: CCRF-CEM leukemia
# SN12C renal = system: SN12C renal
# COLO 205 colon = system: COLO 205 colon
# HS 578T breast = system: HS 578T breast
# K-562 leukemia = system: K-562 leukemia
# M14 melanoma = system: M14 melanoma
# ACHN renal = system: ACHN renal
# HL-60(TB) leukemia = system: HL-60(TB) leukemia
# UO-31 renal = system: UO-31 renal
# RXF 393 renal = system: RXF 393 renal
# LOX IMVI melanoma = system: LOX IMVI melanoma
# MDA-MB-435 = system: MDA-MB-435
# SK-OV-3 ovarian = system: SK-OV-3 ovarian
# HOP-92 NSCLC = system: HOP-92 NSCLC
# A549 NSCLC = system: A549 NSCLC
# SF-539 CNS = system: SF-539 CNS
# A498 renal = system: A498 renal
# HCT-15 colon = system: HCT-15 colon
# SK-MEL-2 melanoma = system: SK-MEL-2 melanoma
# RPMI-8226 leukemia = system: RPMI-8226 leukemia
smiles,measurement,setting,value
Oc1ccc(-c2nnc(SCc3ccc(O)c4ncccc34)n2-c2ccccc2)cc1,GI50,HOP-62 NSCLC,521 nM
same,TGI,HOP-62 NSCLC,> 100000 nM
same,GI50,IGROV1 ovarian,471 nM
same,TGI,IGROV1 ovarian,> 88300 nM
same,GI50,HCT-116 colon,158 nM
same,TGI,HCT-116 colon,> 100000 nM
same,GI50,SR leukemia,325 nM
same,TGI,SR leukemia,> 100000 nM
same,GI50,DU-145 prostate,438 nM
same,TGI,DU-145 prostate,> 100000 nM
same,GI50,SK-MEL-28 melanoma,621 nM
same,TGI,SK-MEL-28 melanoma,> 100000 nM
same,GI50,OVCAR-8 ovarian,233 nM
same,TGI,OVCAR-8 ovarian,> 100000 nM
same,GI50,SF-295 CNS,387 nM
same,TGI,SF-295 CNS,> 100000 nM
same,GI50,SW-620 colon,397 nM
same,TGI,SW-620 colon,> 100000 nM
same,GI50,UACC-62 melanoma,462 nM
same,TGI,UACC-62 melanoma,3980 nM
same,GI50,MALME-3M melanoma,902 nM
same,TGI,MALME-3M melanoma,> 29100 nM
same,GI50,OVCAR-5 ovarian,1320 nM
same,TGI,OVCAR-5 ovarian,> 100000 nM
same,GI50,MOLT-4 leukemia,394 nM
same,TGI,MOLT-4 leukemia,> 100000 nM
same,GI50,SF-268 CNS,465 nM
same,TGI,SF-268 CNS,> 100000 nM
same,GI50,MDA-MB-231 breast,458 nM
same,TGI,MDA-MB-231 breast,> 100000 nM
same,GI50,MCF7 breast,140 nM
same,TGI,MCF7 breast,> 100000 nM
same,GI50,OVCAR-4 ovarian,566 nM
same,TGI,OVCAR-4 ovarian,> 100000 nM
same,GI50,NCI-H460 lung,152 nM
same,TGI,NCI-H460 lung,6280 nM
same,GI50,HT29 colon,3850 nM
same,TGI,HT29 colon,> 100000 nM
same,GI50,BT-549 breast,606 nM
same,TGI,BT-549 breast,> 25800 nM
same,GI50,NCI-H522 lung,330 nM
same,TGI,NCI-H522 lung,2850 nM
same,GI50,HCC-2998 colon,620 nM
same,TGI,HCC-2998 colon,> 63400 nM
same,GI50,U251 CNS,194 nM
same,TGI,U251 CNS,> 100000 nM
same,GI50,EKVX NSCLC,596 nM
same,TGI,EKVX NSCLC,> 100000 nM
same,GI50,SNB-19 CNS,385 nM
same,TGI,SNB-19 CNS,> 100000 nM
same,GI50,786-0 renal,770 nM
same,TGI,786-0 renal,11100 nM
same,GI50,SNB-75 CNS,1500 nM
same,TGI,SNB-75 CNS,> 81000 nM
same,GI50,T-47D breast,600 nM
same,TGI,T-47D breast,> 100000 nM
same,GI50,CAKI-1 renal,448 nM
same,TGI,CAKI-1 renal,> 100000 nM
same,GI50,PC-3 prostate,433 nM
same,TGI,PC-3 prostate,> 100000 nM
same,GI50,TK-10 renal,502 nM
same,TGI,TK-10 renal,> 100000 nM
same,GI50,KM12 colon,372 nM
same,TGI,KM12 colon,> 100000 nM
same,GI50,NCI-H226 lung,718 nM
same,TGI,NCI-H226 lung,> 85800 nM
same,GI50,SK-MEL-5 melanoma,371 nM
same,TGI,SK-MEL-5 melanoma,1840 nM
same,GI50,NCI/ADR-RES ovarian,207 nM
same,GI50,NCI-H23 lung,482 nM
same,TGI,NCI-H23 lung,> 100000 nM
same,GI50,CCRF-CEM leukemia,327 nM
same,TGI,CCRF-CEM leukemia,> 100000 nM
same,GI50,SN12C renal,348 nM
same,TGI,SN12C renal,> 100000 nM
same,GI50,COLO 205 colon,3020 nM
same,TGI,COLO 205 colon,> 100000 nM
same,GI50,HS 578T breast,533 nM
same,TGI,HS 578T breast,> 100000 nM
same,GI50,K-562 leukemia,290 nM
same,TGI,K-562 leukemia,> 100000 nM
same,GI50,M14 melanoma,284 nM
same,TGI,M14 melanoma,1570 nM
same,GI50,ACHN renal,365 nM
same,TGI,ACHN renal,> 100000 nM
same,GI50,HL-60(TB) leukemia,292 nM
same,TGI,HL-60(TB) leukemia,2730 nM
same,GI50,UO-31 renal,261 nM
same,TGI,UO-31 renal,4260 nM
same,GI50,RXF 393 renal,881 nM
same,TGI,RXF 393 renal,> 100000 nM
same,GI50,LOX IMVI melanoma,377 nM
same,TGI,LOX IMVI melanoma,6930 nM
same,GI50,MDA-MB-435,380 nM
same,TGI,MDA-MB-435,> 100000 nM
same,GI50,SK-OV-3 ovarian,496 nM
same,TGI,SK-OV-3 ovarian,> 25900 nM
same,GI50,HOP-92 NSCLC,28.9 nM
same,TGI,HOP-92 NSCLC,845 nM
same,GI50,A549 NSCLC,614 nM
same,TGI,A549 NSCLC,> 100000 nM
same,GI50,SF-539 CNS,528 nM
same,TGI,SF-539 CNS,> 44300 nM
same,GI50,A498 renal,570 nM
same,TGI,A498 renal,5840 nM
same,GI50,HCT-15 colon,164 nM
same,TGI,HCT-15 colon,> 100000 nM
same,GI50,SK-MEL-2 melanoma,828 nM
same,TGI,SK-MEL-2 melanoma,> 36900 nM
same,GI50,RPMI-8226 leukemia,391 nM
same,TGI,RPMI-8226 leukemia,> 100000 nM
